# Data: PMC3794980, “Identification of Conserved and HLA Promiscuous DENV3 T-Cell Epitopes” (PLoS Neglected Tropical Diseases, 2013)
# Where two headings read alike, the source gives them in different places. Where no end group is shown, it is not given here.
# Experiments:
# Test in all cases: biochemical
# Format in all cases: binding
# DRB1*1302 = DRB1*1302 (Homo sapiens, UniProt P01903+P01911, A100E/A169T/K41T/L162R/M171V/P40S/Q125H/Q178H/Q39Y/Q99D/R42S/S66N/T262R/V115G/W38E/Y61H)
# DRB5*0101 = DRB5*0101 (Homo sapiens, UniProt P01903+Q30154)
# DRB1*1501 = DRB1*1501 (Homo sapiens, UniProt P01903+P01911)
# DRB1*0701 = DRB1*0701 (Homo sapiens, UniProt P01903+P01911, A100R/A102G/A103Q/D57E/D86V/E43K/F76Y/K127E/L162R/M171V/P40G/Q125H/Q99D/R33Q/R42Y/R54Q/S133A/S66F/T210M/V115G/Y107V/Y59L/Y89S)
# DRB1*0802 = DRB1*0802 (Homo sapiens, UniProt P01903+P01911, A100R/A103L/A169T/F76Y/H45Y/I96F/K41T/L162R/M171V/P40S/Q125H/Q178H/Q39Y/Q99D/R218S/R42G/S66Y/V115G/W38E)
# DRB1*0901 = DRB1*0901 (Homo sapiens, UniProt P01903+P01911, A100R/A103E/D57H/D86V/F55Y/F60I/F76Y/I96F/K127E/L162R/M171V/P40D/Q125H/Q99R/R33Q/R42F/S133A/S66N/T210M/V115G/W38K/Y107V/Y59G/Y89S)
# DRB1*0301 = DRB1*0301 (Homo sapiens, UniProt P01903+P01911, A100K/A102G/A103R/A169T/F55Y/I96L/K41T/L162R/M171V/P40S/Q125H/Q178H/Q39Y/R42S/S66N/T106N/T262R/W38E/Y61H)
# Chain of DRB1*0301 (P01903 26-254, other chains not shown): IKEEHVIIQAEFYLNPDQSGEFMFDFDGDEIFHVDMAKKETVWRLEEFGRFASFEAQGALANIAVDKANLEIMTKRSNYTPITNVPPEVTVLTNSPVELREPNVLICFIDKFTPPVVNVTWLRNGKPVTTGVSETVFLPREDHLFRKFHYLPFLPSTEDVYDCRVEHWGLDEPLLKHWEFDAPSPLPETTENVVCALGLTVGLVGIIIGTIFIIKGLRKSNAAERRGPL
# DRB4*0101 = DRB4*0101 (Homo sapiens, UniProt P01903+P13762, G164S)
# DRB1*0401 = DRB1*0401 (Homo sapiens, UniProt P01903+P01911, A100K/A169T/F76Y/I96L/K127E/L162R/M171V/N62H/P40V/Q125Y/R42H/S133A/S149N/S66Y/V115G/V209L/W38E)
# DRB1*0404 = DRB1*0404 (Homo sapiens, UniProt P01903+P01911, A100R/A169T/F76Y/I96L/K127E/L162R/M171V/N62H/P40V/Q125Y/R42H/S133A/S149N/S66Y/V209L/W38E)
# DRB1*0405 = DRB1*0405 (Homo sapiens, UniProt P01903+P01911, A100R/A169T/D86S/F76Y/I96L/K127E/L162R/M171V/N62H/P40V/Q125Y/R42H/S133A/S149N/S66Y/V115G/V209L/W38E)
# DRB3*0101 = DRB3*0101 (Homo sapiens, UniProt P01903+P79483)
# DRB1*0101 = DRB1*0101 (Homo sapiens, UniProt P01903+P01911, A100R/D57E/F55L/F60I/F76Y/I96L/L162R/M171V/P40L/Q125E/R42F/V115G/Y59C)
# [1] = competitive inhibition of radiolabeled standard peptide, DRB1*1302, read-out: Binding Affinity (nM) DRB1*1302
# [2] = competitive inhibition of radiolabeled standard peptide, DRB1*0901, read-out: Binding Affinity (nM) DRB1*0901
# Chain of DRB1*1302 (P01903 26-254 limits assumed, other chains not shown): as the sequence (P01903 26-254, other chains not shown) above
molecule,measurement,setting,value
CC(C)C[C@H](NC(=O)[C@H](CCC(=O)O)NC(=O)[C@H](CCCCN)NC(=O)[C@@H](N)CCCNC(=N)N)C(=O)N[C@@H](CC(C)C)C(=O)N[C@H](C(=O)N[C@H](C(=O)N[C@@H](Cc1ccccc1)C(=O)N[C@@H](CCCCN)C(=O)N[C@@H](CC(N)=O)C(=O)N[C@@H](C)C(=O)N[C@@H](Cc1c[nH]cn1)C(=O)N[C@@H](C)C(=O)N[C@@H](CCCCN)C(=O)N[C@@H](CCCCN)C(=O)O)[C@@H](C)O)C(C)C [Envelope 231-245],IC50,DRB1*1302,17200 nM
same,IC50,DRB5*0101,25 nM
same,IC50,DRB1*1501,5.2 nM
same,IC50,DRB1*0701,3780 nM
same,IC50,DRB1*0802,7.2 nM
same,IC50,DRB1*0901,48 nM
same,IC50,DRB1*0301,2320 nM
same,IC50,DRB4*0101,57 nM
same,IC50,DRB1*0401,3.5 nM
same,IC50,DRB1*0404,1590 nM
same,IC50,DRB1*0405,31 nM
same,IC50,DRB3*0101,16500 nM
same,IC50,DRB1*0101,5.1 nM
CSCC[C@H](NC(=O)[C@H](CC(C)C)NC(=O)[C@H](CCCNC(=N)N)NC(=O)[C@H](Cc1c[nH]cn1)NC(=O)[C@H](CC(=O)O)NC(=O)[C@H](CS)NC(=O)[C@H](CC(C)C)NC(=O)[C@H](CCC(N)=O)NC(=O)[C@@H](NC(=O)[C@H](Cc1ccc(O)cc1)NC(=O)[C@@H](NC(=O)[C@@H](N)CCC(=O)O)C(C)C)[C@@H](C)O)C(=O)N[C@@H](CO)C(=O)N[C@@H](C)C(=O)N[C@@H](C)C(=O)O [NS1 173-187],IC50,"DRB1*1302; competitive inhibition of radiolabeled standard peptide, '-' distinct from ND, read-out: Binding Affinity (nM) DRB1*1302",4600 nM
same,IC50,DRB5*0101,753 nM
same,IC50,DRB1*1501,1040 nM
same,IC50,DRB1*0701,1660 nM
same,IC50,DRB1*0802,900 nM
same,IC50,"DRB1*0901; competitive inhibition of radiolabeled standard peptide, '-' distinct from ND, read-out: Binding Affinity (nM) DRB1*0901",608 nM
same,IC50,DRB1*0301,787 nM
same,IC50,DRB4*0101,6150 nM
same,IC50,DRB1*0401,502 nM
same,IC50,DRB1*0404,1290 nM
same,IC50,DRB1*0405,1450 nM
same,IC50,DRB3*0101,57 nM
same,IC50,DRB1*0101,26 nM
CC[C@H](C)[C@H](NC(=O)[C@@H](N)CCCCN)C(=O)N1CCC[C@H]1C(=O)NCC(=O)NCC(=O)N[C@@H](C)C(=O)N[C@@H](CCSC)C(=O)N[C@@H](Cc1ccc(O)cc1)C(=O)N[C@@H](C)C(=O)N[C@@H](CC(=O)O)C(=O)N[C@@H](CC(=O)O)C(=O)N[C@H](C(=O)N[C@@H](C)C(=O)NCC(=O)N[C@@H](Cc1c[nH]c2ccccc12)C(=O)N[C@@H](CC(=O)O)C(=O)N[C@H](C(=O)O)[C@@H](C)O)[C@@H](C)O [NS5 523-539],IC50,DRB1*1302; [1],1430 nM
same,IC50,DRB5*0101,4120 nM
same,IC50,DRB1*1501,15100 nM
same,IC50,DRB1*0701,6560 nM
same,IC50,DRB1*0802,1160 nM
same,IC50,DRB1*0901; [2],13200 nM
same,IC50,DRB1*0301,9.3 nM
same,IC50,DRB4*0101,445 nM
same,IC50,DRB1*0401,7.3 nM
same,IC50,DRB1*0404,3130 nM
same,IC50,DRB1*0405,3170 nM
same,IC50,DRB3*0101,45 nM
same,IC50,DRB1*0101,733 nM
CC[C@H](C)[C@H](NC(=O)[C@H](C)NC(=O)[C@H](CC(N)=O)NC(=O)[C@H](C)NC(=O)[C@H](CC(C)C)NC(=O)[C@H](CCC(N)=O)NC(=O)[C@H](CCCNC(=N)N)NC(=O)[C@H](Cc1c[nH]cn1)NC(=O)[C@H](CCC(=O)O)NC(=O)[C@@H]1CCCN1)C(=O)N[C@@H](Cc1ccccc1)C(=O)N[C@@H](CCCCN)C(=O)N[C@@H](CC(C)C)C(=O)N[C@H](C(=O)N[C@@H](Cc1ccc(O)cc1)C(=O)N[C@@H](CCC(N)=O)C(=O)N[C@@H](CC(N)=O)C(=O)O)[C@@H](C)O [NS5 558-574],IC50,DRB1*1302; [1],1400 nM
same,IC50,DRB5*0101,391 nM
same,IC50,DRB1*1501,401 nM
same,IC50,DRB1*0701,134 nM
same,IC50,DRB1*0802,539 nM
same,IC50,DRB1*0901; [2],1930 nM
same,IC50,DRB1*0301,586 nM
same,IC50,DRB1*0401,2820 nM
same,IC50,DRB1*0404,2650 nM
same,IC50,DRB1*0405,667 nM
same,IC50,DRB3*0101,1080 nM
same,IC50,DRB1*0101,489 nM
CC[C@H](C)[C@H](NC(=O)[C@H](C)NC(=O)[C@H](CC(N)=O)NC(=O)[C@H](C)N)C(=O)N[C@@H](Cc1ccccc1)C(=O)N[C@@H](CCCCN)C(=O)N[C@@H](CC(C)C)C(=O)N[C@H](C(=O)N[C@@H](Cc1ccc(O)cc1)C(=O)N[C@@H](CCC(N)=O)C(=O)N[C@@H](CC(N)=O)C(=O)N[C@@H](CCCCN)C(=O)N[C@H](C(=O)N[C@H](C(=O)N[C@@H](CCCCN)C(=O)N[C@H](C(=O)N[C@@H](CCC(N)=O)C(=O)O)C(C)C)C(C)C)C(C)C)[C@@H](C)O [NS5 564-580],IC50,DRB1*1302,11 nM
same,IC50,DRB5*0101,305 nM
same,IC50,DRB1*1501,28 nM
same,IC50,DRB1*0701,25 nM
same,IC50,DRB1*0802,2600 nM
same,IC50,DRB1*0901,100 nM
same,IC50,DRB1*0301,222 nM
same,IC50,DRB1*0401,390 nM
same,IC50,DRB1*0404,4810 nM
same,IC50,DRB1*0405,1680 nM
same,IC50,DRB3*0101,576 nM
same,IC50,DRB1*0101,19 nM
CC[C@H](C)[C@H](NC(=O)[C@H](CC(C)C)NC(=O)[C@H](CCC(=O)O)NC(=O)[C@H](CC(=O)O)NC(=O)[C@H](CCC(N)=O)NC(=O)[C@@H]1CCCN1C(=O)[C@H](CCCNC(=N)N)NC(=O)[C@H](CS)NC(=O)[C@@H]1CCCN1C(=O)[C@@H](NC(=O)[C@@H](NC(=O)[C@H](CC(C)C)NC(=O)[C@H](CCCCN)NC(=O)[C@H](CCCNC(=N)N)NC(=O)CNC(=O)[C@H](CC(=O)O)NC(=O)[C@@H](N)CCCCN)C(C)C)C(C)C)C(=O)O [NS5 719-735],IC50,DRB5*0101,3440 nM
same,IC50,DRB4*0101,17800 nM
same,IC50,DRB3*0101,5680 nM
CC(C)[C@H](NC(=O)[C@@H]1CCCN1C(=O)[C@@H](NC(=O)[C@H](C)NC(=O)[C@H](CO)NC(=O)[C@@H](N)CS)C(C)C)C(=O)N[C@@H](Cc1c[nH]cn1)C(=O)N[C@@H](Cc1c[nH]c2ccccc12)C(=O)N[C@H](C(=O)N1CCC[C@H]1C(=O)N[C@H](C(=O)N[C@@H](CO)C(=O)N[C@@H](CCCNC(=N)N)C(=O)N[C@H](C(=O)N[C@H](C(=O)N[C@@H](Cc1c[nH]c2ccccc12)C(=O)O)[C@@H](C)O)[C@@H](C)O)[C@@H](C)O)C(C)C [NS5 780-795],IC50,DRB5*0101,1950 nM
same,IC50,DRB4*0101,168 nM
same,IC50,DRB3*0101,2340 nM
CC[C@H](C)[C@H](NC(=O)[C@H](CC(C)C)NC(=O)[C@H](CO)NC(=O)CNC(=O)[C@H](CS)NC(=O)[C@H](Cc1c[nH]c2ccccc12)NC(=O)[C@H](CCC(N)=O)NC(=O)[C@H](CC(=O)O)NC(=O)[C@H](CCC(=O)O)NC(=O)[C@H](CCCNC(=N)N)NC(=O)[C@H](CCCCN)NC(=O)CNC(=O)[C@H](CC(C)C)NC(=O)[C@@H](N)Cc1ccc(O)cc1)C(=O)NCC(=O)N[C@@H](CC(C)C)C(=O)N[C@H](C(=O)O)[C@@H](C)O [NS5 838-854],IC50,DRB5*0101,15500 nM
same,IC50,DRB4*0101,1590 nM
same,IC50,DRB3*0101,79 nM
AILPEYGTLGLECSP [Envelope 171-185],IC50,DRB5*0101,17200 nM
same,IC50,DRB4*0101,787 nM
same,IC50,DRB3*0101,12600 nM
ALTGATEIQNSGGTS [Envelope 261-275],IC50,DRB5*0101,3670 nM
same,IC50,DRB4*0101,8570 nM
same,IC50,DRB3*0101,17500 nM
GTILVKVEYKGEDAP [Envelope 316-330],IC50,DRB5*0101,5260 nM
same,IC50,DRB4*0101,6030 nM
same,IC50,DRB3*0101,5290 nM
LGSQEGAMHTALTGA [Envelope 251-265],IC50,DRB5*0101,722 nM
same,IC50,DRB4*0101,7210 nM
same,IC50,DRB3*0101,5590 nM
LKKEVSETQHGTILV [Envelope 306-320],IC50,DRB5*0101,12600 nM
same,IC50,DRB4*0101,7860 nM
same,IC50,DRB3*0101,12100 nM
MRCVGVGNRDFVEGL [Envelope 1-15],IC50,DRB5*0101,4830 nM
same,IC50,DRB4*0101,3770 nM
same,IC50,DRB3*0101,2840 nM
TNTFVLKKEVSETQH [Envelope 301-315],IC50,DRB5*0101,4890 nM
same,IC50,DRB4*0101,2190 nM
same,IC50,DRB3*0101,2830 nM
TRGAVLTYNGKRLEP [NS3 53-67],IC50,DRB5*0101,329 nM
same,IC50,DRB4*0101,11500 nM
same,IC50,DRB3*0101,3290 nM
VTFKNAHAKKPEVVV [Envelope 236-250],IC50,DRB5*0101,30 nM
same,IC50,DRB4*0101,6760 nM
same,IC50,DRB3*0101,18200 nM
